# Data as given in patent publication US6914045B2, “Glycopeptide antibiotics” (Wyeth Holdings Corporation, priority 2001, dated 2005).
# Legend:
# Test in all cases: in vitro antibacterial evaluation, MIC by broth dilution
# Assay type in all cases: cell-based
# Escherichia coli = conditions: for MIC Escherichia coli (ATCC 25922): strain ATCC 25922, 18 hours at 35° C.; for MIC Escherichia coli (GC 4559): strain GC 4559, 18 hours at 35° C.; for MIC Escherichia coli (GC 4560): strain GC 4560, 18 hours at 35° C.
# Method in brief: (§1)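 MIC = lowest antibiotic concentration preventing visible growth; inoculum 5×10^5 CFU/mL; drug range 64-0.06 μg/mL; Muller-Hinton II […]; NCCLS M7-A2 guidance.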
# Enterococcus sp. = conditions: broth dilution, 18 hours at 35° C.
# Method in brief: as §1
# Staphylococcus sp. = conditions: broth dilution, 18 hours at 35° C.; for MIC Staphylococcus aureus (GC 1131): strain GC 1131; for MIC Staphylococcus aureus (ATCC 29213): strain ATCC 29213; for MIC Staphylococcus aureus (GC 3051): strain GC 3051; for MIC Staphylococcus aureus (GC 3053): strain GC 3053; for MIC Staphylococcus aureus (GC 4541): strain GC 4541; for MIC Staphylococcus aureus (GC 4542): strain GC 4542; for MIC Staphylococcus aureus (GC 4544): strain GC 4544; for MIC Staphylococcus aureus (GC 4545): strain GC 4545; for MIC Staphylococcus haemolyticus (GC 4546): strain GC 4546; for MIC Coagulase Negative Staphylococcus (GC 4547): strain GC 4547; for MIC Coagulase Negative Staphylococcus (GC 4548): strain GC 4548; for MIC Coagulase Negative Staphylococcus (GC 4549): strain GC 4549; for MIC Coagulase Negative Staphylococcus (GC 4551): strain GC 4551; for MIC Coagulase Negative Staphylococcus (GC 6257): strain GC 6257
# Method in brief: as §1
# Streptococcus sp. = conditions: broth dilution, 18 hours at 35° C.
# Method in brief: as §1
compound,measurement,setting,value
COc1cc(OC)cc(C2OC3C(OC4C(CO)OC(Oc5ccc(CC6NC(=O)C(C(C)c7ccccc7)NC(=O)CNC(=O)C(CO)NC(=O)C(C(O)C7CNC(=N)N7C7OC(CO)C(O)C(O)C7O)NC(=O)C(C(O)C7CNC(=N)N7)NC6=O)cc5)C(O)C4O)OC(CO)C(O)C3O2)c1 (stereo not drawn) [Example 150a],MIC Escherichia coli (ATCC 25922),Escherichia coli,>64 µg/mL
same,MIC Escherichia coli (GC 4559),Escherichia coli,>64 µg/mL
same,MIC Escherichia coli (GC 4560),Escherichia coli,16 µg/mL
same,MIC Enterococcus avium (GC 4558),Enterococcus sp.; Enterococcus avium (GC 4558),64 µg/mL
same,MIC Enterococcus faecalis (ATCC 29212),Enterococcus sp.; Enterococcus faecalis (ATCC 29212),>64 µg/mL
same,MIC Enterococcus faecalis (GC 2242),Enterococcus sp.; Enterococcus faecalis (GC 2242),>64 µg/mL
same,MIC Enterococcus faecalis (GC 2691),Enterococcus sp.; Enterococcus faecalis (GC 2691),>64 µg/mL
same,MIC Enterococcus faecalis (GC 3059),Enterococcus sp.; Enterococcus faecalis (GC 3059),>64 µg/mL
same,MIC Enterococcus faecalis (GC 4552),Enterococcus sp.; Enterococcus faecalis (GC 4552),>64 µg/mL
same,MIC Enterococcus faecalis (GC 4553),Enterococcus sp.; Enterococcus faecalis (GC 4553),>64 µg/mL
same,MIC Enterococcus faecalis (GC 4554),Enterococcus sp.; Enterococcus faecalis (GC 4554),>64 µg/mL
same,MIC Enterococcus faecalis (GC 6189),Enterococcus sp.; Enterococcus faecalis (GC 6189),>64 µg/mL
same,MIC Enterococcus faecium (GC 2243),Enterococcus sp.; Enterococcus faecium (GC 2243),>64 µg/mL
same,MIC Enterococcus faecium (GC 4556),Enterococcus sp.; Enterococcus faecium (GC 4556),>64 µg/mL
same,MIC Enterococcus faecium (GC 4557),Enterococcus sp.; Enterococcus faecium (GC 4557),16 µg/mL
same,MIC Enterococcus faecalis (ATCC 29212),Enterococcus sp.; strain ATCC 29212,>64 µg/mL
same,MIC Enterococcus faecalis (GC 2242),Enterococcus sp.; strain GC 2242,>64 µg/mL
same,MIC Enterococcus faecium (GC 2243),Enterococcus sp.; strain GC 2243,>64 µg/mL
same,MIC Enterococcus faecalis (GC 2691),Enterococcus sp.; strain GC 2691,>64 µg/mL
same,MIC Enterococcus faecalis (GC 3059),Enterococcus sp.; strain GC 3059,>64 µg/mL
same,MIC Enterococcus faecalis (GC 4552),Enterococcus sp.; strain GC 4552,>64 µg/mL
same,MIC Enterococcus faecalis (GC 4553),Enterococcus sp.; strain GC 4553,>64 µg/mL
same,MIC Enterococcus faecalis (GC 4554),Enterococcus sp.; strain GC 4554,>64 µg/mL
same,MIC Enterococcus faecium (GC 4556),Enterococcus sp.; strain GC 4556,>64 µg/mL
same,MIC Enterococcus faecium (GC 4557),Enterococcus sp.; strain GC 4557,16 µg/mL
same,MIC Enterococcus avium (GC 4558),Enterococcus sp.; strain GC 4558,64 µg/mL
same,MIC Enterococcus faecalis (GC 6189),Enterococcus sp.; strain GC 6189,>64 µg/mL
same,MIC Staphylococcus aureus (GC 1131),Staphylococcus sp.; inoculum 5×10^5 CFU/mL,32 µg/mL
same,MIC Staphylococcus aureus (ATCC 29213),Staphylococcus sp.,32 µg/mL
same,MIC Staphylococcus aureus (GC 1131),Staphylococcus sp.,32 µg/mL
same,MIC Staphylococcus aureus (GC 3051),Staphylococcus sp.,32 µg/mL
same,MIC Staphylococcus aureus (GC 3053),Staphylococcus sp.,32 µg/mL
same,MIC Staphylococcus aureus (GC 4541),Staphylococcus sp.,16 µg/mL
same,MIC Staphylococcus aureus (GC 4542),Staphylococcus sp.,32 µg/mL
same,MIC Staphylococcus aureus-SMITH (GC 4543),Staphylococcus sp.; strain GC 4543,16 µg/mL
same,MIC Staphylococcus aureus (GC 4544),Staphylococcus sp.,32 µg/mL
same,MIC Staphylococcus aureus (GC 4545),Staphylococcus sp.,16 µg/mL
same,MIC Staphylococcus haemolyticus (GC 4546),Staphylococcus sp.,16 µg/mL
same,MIC Coagulase Negative Staphylococcus (GC 4547),Staphylococcus sp.,16 µg/mL
same,MIC Coagulase Negative Staphylococcus (GC 4548),Staphylococcus sp.,8 µg/mL
same,MIC Coagulase Negative Staphylococcus (GC 4549),Staphylococcus sp.,8 µg/mL
same,MIC Coagulase Negative Staphylococcus (GC 4551),Staphylococcus sp.,32 µg/mL
same,MIC Coagulase Negative Staphylococcus (GC 6257),Staphylococcus sp.,8 µg/mL
same,MIC Staphylococcus aureus-SMITH (GC 4543),Staphylococcus sp.; strain SMITH GC 4543,16 µg/mL
same,MIC Streptococcus agalactiae (GC 4564),Streptococcus sp.; Streptococcus agalactiae (GC 4564),32 µg/mL
same,MIC Streptococcus pneumoniae (ATCC 6301),Streptococcus sp.; Streptococcus pneumoniae (ATCC 6301),8 µg/mL
same,MIC Streptococcus pneumoniae (GC 1894),Streptococcus sp.; Streptococcus pneumoniae (GC 1894),8 µg/mL
same,MIC Streptococcus pneumoniae (GC 4565),Streptococcus sp.; Streptococcus pneumoniae (GC 4565),16 µg/mL
same,MIC Streptococcus pyogenes (GC 4563),Streptococcus sp.; Streptococcus pyogenes (GC 4563),16 µg/mL
same,MIC Streptococcus pneumoniae (ATCC 6301),Streptococcus sp.; strain ATCC 6301,8 µg/mL
same,MIC Streptococcus pneumoniae (GC 1894),Streptococcus sp.; strain GC 1894,8 µg/mL
same,MIC Streptococcus pyogenes (GC 4563),Streptococcus sp.; strain GC 4563,16 µg/mL
same,MIC Streptococcus agalactiae (GC 4564),Streptococcus sp.; strain GC 4564,32 µg/mL
same,MIC Streptococcus pneumoniae (GC 4565),Streptococcus sp.; strain GC 4565,16 µg/mL
CC(C)=CCOc1cccc(C2OCC3OC(OC4C(CO)OC(Oc5ccc(CC6NC(=O)C(C(C)c7ccccc7)NC(=O)CNC(=O)C(CO)NC(=O)C(C(O)C7CNC(=N)N7C7OC(CO)C(O)C(O)C7O)NC(=O)C(C(O)C7CNC(=N)N7)NC6=O)cc5)C(O)C4O)C(O)C(O)C3O2)c1 (stereo not drawn) [Example 165],MIC Escherichia coli (ATCC 25922),Escherichia coli,>64 µg/mL
same,MIC Escherichia coli (GC 4559),Escherichia coli,>64 µg/mL
same,MIC Escherichia coli (GC 4560),Escherichia coli,16 µg/mL
same,MIC Enterococcus faecalis (ATCC 29212),"Enterococcus sp.; inoculum 5×10^5 CFU/mL, strain ATCC 29212",16 µg/mL
same,MIC Enterococcus faecalis (GC 2242),"Enterococcus sp.; inoculum 5×10^5 CFU/mL, strain GC 2242",16 µg/mL
same,MIC Enterococcus faecium (GC 2243),"Enterococcus sp.; inoculum 5×10^5 CFU/mL, strain GC 2243",16 µg/mL
same,MIC Enterococcus faecalis (GC 2691),"Enterococcus sp.; inoculum 5×10^5 CFU/mL, strain GC 2691",16 µg/mL
same,MIC Enterococcus faecalis (GC 3059),"Enterococcus sp.; inoculum 5×10^5 CFU/mL, strain GC 3059",16 µg/mL
same,MIC Enterococcus faecalis (GC 4552),"Enterococcus sp.; inoculum 5×10^5 CFU/mL, strain GC 4552",16 µg/mL
same,MIC Enterococcus faecalis (GC 4553),"Enterococcus sp.; inoculum 5×10^5 CFU/mL, strain GC 4553",16 µg/mL
same,MIC Enterococcus faecalis (GC 4554),"Enterococcus sp.; inoculum 5×10^5 CFU/mL, strain GC 4554",32 µg/mL
same,MIC Enterococcus faecium (GC 4556),"Enterococcus sp.; inoculum 5×10^5 CFU/mL, strain GC 4556",16 µg/mL
same,MIC Enterococcus faecium (GC 4557),"Enterococcus sp.; inoculum 5×10^5 CFU/mL, strain GC 4557",16 µg/mL
same,MIC Enterococcus avium (GC 4558),"Enterococcus sp.; inoculum 5×10^5 CFU/mL, strain GC 4558",16 µg/mL
same,MIC Enterococcus faecalis (GC 6189),"Enterococcus sp.; inoculum 5×10^5 CFU/mL, strain GC 6189",16 µg/mL
same,MIC Enterococcus faecalis (ATCC 29212),Enterococcus sp.; strain ATCC 29212,16 µg/mL
same,MIC Enterococcus faecalis (GC 2242),Enterococcus sp.; strain GC 2242,16 µg/mL
same,MIC Enterococcus faecium (GC 2243),Enterococcus sp.; strain GC 2243,16 µg/mL
same,MIC Enterococcus faecalis (GC 2691),Enterococcus sp.; strain GC 2691,16 µg/mL
same,MIC Enterococcus faecalis (GC 3059),Enterococcus sp.; strain GC 3059,16 µg/mL
same,MIC Enterococcus faecalis (GC 4552),Enterococcus sp.; strain GC 4552,16 µg/mL
same,MIC Enterococcus faecalis (GC 4553),Enterococcus sp.; strain GC 4553,16 µg/mL
same,MIC Enterococcus faecalis (GC 4554),Enterococcus sp.; strain GC 4554,32 µg/mL
same,MIC Enterococcus faecium (GC 4556),Enterococcus sp.; strain GC 4556,16 µg/mL
same,MIC Enterococcus faecium (GC 4557),Enterococcus sp.; strain GC 4557,16 µg/mL
same,MIC Enterococcus avium (GC 4558),Enterococcus sp.; strain GC 4558,16 µg/mL
same,MIC Enterococcus faecalis (GC 6189),Enterococcus sp.; strain GC 6189,16 µg/mL
same,MIC Staphylococcus aureus (GC 1131),Staphylococcus sp.; inoculum 5×10^5 CFU/mL,16 µg/mL
same,MIC Staphylococcus aureus (ATCC 29213),Staphylococcus sp.,16 µg/mL
same,MIC Staphylococcus aureus (GC 1131),Staphylococcus sp.,16 µg/mL
same,MIC Staphylococcus aureus (GC 3051),Staphylococcus sp.,32 µg/mL
same,MIC Staphylococcus aureus (GC 3053),Staphylococcus sp.,16 µg/mL
same,MIC Staphylococcus aureus (GC 4541),Staphylococcus sp.,16 µg/mL
same,MIC Staphylococcus aureus (GC 4542),Staphylococcus sp.,16 µg/mL
same,MIC Staphylococcus aureus-SMITH (GC 4543),Staphylococcus sp.; strain GC 4543,16 µg/mL
same,MIC Staphylococcus aureus (GC 4544),Staphylococcus sp.,16 µg/mL
same,MIC Staphylococcus aureus (GC 4545),Staphylococcus sp.,16 µg/mL
same,MIC Staphylococcus haemolyticus (GC 4546),Staphylococcus sp.,16 µg/mL
same,MIC Coagulase Negative Staphylococcus (GC 4547),Staphylococcus sp.,16 µg/mL
same,MIC Coagulase Negative Staphylococcus (GC 4548),Staphylococcus sp.,8 µg/mL
same,MIC Coagulase Negative Staphylococcus (GC 4549),Staphylococcus sp.,8 µg/mL
same,MIC Coagulase Negative Staphylococcus (GC 4551),Staphylococcus sp.,16 µg/mL
same,MIC Coagulase Negative Staphylococcus (GC 6257),Staphylococcus sp.,8 µg/mL
same,MIC Staphylococcus aureus-SMITH (GC 4543),Staphylococcus sp.; strain SMITH GC 4543,16 µg/mL
same,MIC Streptococcus pneumoniae (ATCC 6301),"Streptococcus sp.; inoculum 5×10^5 CFU/mL, strain ATCC 6301",0.12 µg/mL
same,MIC Streptococcus pneumoniae (GC 1894),"Streptococcus sp.; inoculum 5×10^5 CFU/mL, strain GC 1894",<0.06 µg/mL
same,MIC Streptococcus pyogenes (GC 4563),"Streptococcus sp.; inoculum 5×10^5 CFU/mL, strain GC 4563",0.12 µg/mL
same,MIC Streptococcus agalactiae (GC 4564),"Streptococcus sp.; inoculum 5×10^5 CFU/mL, strain GC 4564",1 µg/mL
same,MIC Streptococcus pneumoniae (GC 4565),"Streptococcus sp.; inoculum 5×10^5 CFU/mL, strain GC 4565",0.12 µg/mL
same,MIC Streptococcus pneumoniae (ATCC 6301),Streptococcus sp.; strain ATCC 6301,0.12 µg/mL
same,MIC Streptococcus pneumoniae (GC 1894),Streptococcus sp.; strain GC 1894,<0.06 µg/mL
same,MIC Streptococcus pyogenes (GC 4563),Streptococcus sp.; strain GC 4563,0.12 µg/mL
same,MIC Streptococcus agalactiae (GC 4564),Streptococcus sp.; strain GC 4564,1 µg/mL
same,MIC Streptococcus pneumoniae (GC 4565),Streptococcus sp.; strain GC 4565,0.12 µg/mL
